# Measured values taken from patent US9422338B2 (EpoDose LLC, priority 2011, dated 2016).
# Bridges are numbered along the chain shown (N, C = ends). Roman numbers before positions name the chains, in order. [ ]: non-standard residue; d: D form. ξ: configuration not given here. 1Nal = N[C@@H](Cc1cccc2ccccc12)C(=O)O; ξK = NCCCCC(N)C(=O)O; Ava = NCCCCC(=O)O
# Biological target: T1, EPOR (erythropoietin receptor), human recombinant, NSO cells (Homo sapiens, UniProt P19235)
# T1 construct: host or cells: NSO cells
# T1 sequence (P19235 25-250 limits assumed): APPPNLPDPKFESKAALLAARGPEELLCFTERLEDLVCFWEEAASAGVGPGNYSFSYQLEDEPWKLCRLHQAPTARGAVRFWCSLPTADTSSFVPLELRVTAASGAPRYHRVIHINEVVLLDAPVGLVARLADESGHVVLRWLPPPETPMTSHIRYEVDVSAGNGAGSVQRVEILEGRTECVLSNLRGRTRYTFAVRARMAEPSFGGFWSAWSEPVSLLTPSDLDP
# Test: EPOR radioligand binding assay ([125I] Erythropoietin competition)
# Details: for Ki (AC-0005-002)/Ki: Ki relative to that of AC-0005-002; for Ki/Ki(EPO): Ki relative to that of EPO
# Experimental: IC50 values were determined by a non-linear, least squares regression analysis using MATHIQ™ (computer software for integrating mathematical functions into new or existing software). […] Where presented, the Hill coefficient (nH), defining the slope of the competitive binding curve, was calculated using MATHIQ™.
# [1] = Example 2, mimetics varied in loop, mid and C-end
molecule,measurement,setting,value
CSCC[C@@H]1NC(=O)[C@H](Cc2c[nH]cn2)NC(=O)C(NC(=O)[C@H](CC(C)C)NC(=O)[C@H](Cc2ccc(O)cc2)NC(=O)[C@H](CC(N)=O)NC(C)=O)CCOCC(C(=O)N[C@@H](CCCCNC(=N)N)C(=O)N2CCC[C@H]2C(=O)NCCCCC(=O)NCCCCC(NC(=O)[C@@H]2CCCN2C(=O)[C@H](CCCCNC(=N)N)NC(=O)C2COCCC(NC(=O)[C@H](CC(C)C)NC(=O)[C@H](Cc3ccc(O)cc3)NC(=O)[C@H](CC(N)=O)NC(C)=O)C(=O)N[C@@H](Cc3c[nH]cn3)C(=O)N[C@@H](CCSC)C(=O)N3CCC[C@H]3C(=O)N[C@@H](Cc3ccc4ccccc4c3)C(=O)N[C@@H](C(C)C)C(=O)N2)C(N)=O)NC(=O)[C@H](C(C)C)NC(=O)[C@H](Cc2ccc3ccccc3c2)NC(=O)[C@@H]2CCCN2C1=O (stereo partly drawn) [AC-0005-056],Ki,"Example 1, mimetics varied in N-end, loop and mid sequences",11.2 nM
same,IC50,Example 3,23.5 nM
same,Ki,"Example 3, Cheng-Prusoff",11.1 nM
same,IC50,"Example 4, fifth table",24 nM
CSCC[C@H]1COC2CCCC2C(=O)N[C@@H](Cc2c[nH]c3ccccc23)C(=O)N[C@@H](C(C)C)C(=O)NC(C(=O)N[C@@H](CCCCNC(=N)N)C(=O)N2CCC[C@H]2C(=O)NCCCCC(=O)NCCCCC(NC(=O)[C@@H]2CCCN2C(=O)[C@H](CCCCNC(=N)N)NC(=O)C2COCCC(NC(=O)[C@H](CC(C)C)NC(=O)[C@H](Cc3ccc(O)cc3)NC(=O)[C@H](CC(N)=O)NC(C)=O)C(=O)N[C@@H](CCCNC(=N)N)C(=O)N[C@@H](CCSC)COC3CCCC3C(=O)N[C@@H](Cc3c[nH]c4ccccc34)C(=O)N[C@@H](C(C)C)C(=O)N2)C(N)=O)COCCC(NC(=O)[C@H](CC(C)C)NC(=O)[C@H](Cc2ccc(O)cc2)NC(=O)[C@H](CC(N)=O)NC(C)=O)C(=O)N[C@@H](CCCNC(=N)N)C(=O)N1 (stereo partly drawn) [AC-0005-057],NH (Hill coefficient),"Example 3, slope of competitive binding curve",1.84
same,Ki (AC-0005-002)/Ki,"Example 4, fifth table",379
same,Ki/Ki(EPO),"Example 4, fifth table",128
CCN[C@@H](CC(N)=O)C(=O)N[C@@H](Cc1ccc(O)cc1)C(=O)N[C@@H](CC(C)C)C(=O)NC1CCOCC(C(=O)N[C@@H](CCCCNC(=N)N)C(=O)N2CCC[C@H]2C(=O)NC(CCCC(=O)NCCCCC(NC(=O)[C@@H]2CCCN2C(=O)[C@H](CCCCNC(=N)N)NC(=O)C2COCCC(NC(=O)[C@H](CC(C)C)NC(=O)[C@H](Cc3ccc(O)cc3)NC(=O)[C@H](CC(N)=O)NC(C)=O)C(=O)N[C@@H](CCCNC(=N)N)C(=O)N[C@@H](CCSC)C(=O)N3CCC[C@H]3C(=O)N[C@@H](Cc3ccc4ccccc4c3)C(=O)N[C@@H](C(C)C)C(=O)N2)C(=O)N[C@@H](CCCNC(=N)N)C(N)=O)C(=O)N[C@@H](CCCNC(=N)N)C(N)=O)NC(=O)[C@H](C(C)C)NC(=O)[C@H](Cc2ccc3ccccc3c2)NC(=O)[C@@H]2CCCN2C(=O)[C@H](CCSC)NC(=O)[C@H](CCCNC(=N)N)NC1=O (stereo partly drawn) [AC-0005-060],Ki (AC-0005-002)/Ki,"Example 4, sixth table",195
same,Ki/Ki(EPO),"Example 4, sixth table",330
CSCC[C@@H]1NC(=O)[C@H](CCCNC(=N)N)NC(=O)C(NC(=O)[C@H](CC(C)C)NC(=O)[C@H](Cc2ccc(O)cc2)NC(=O)[C@H](CC(N)=O)NC(C)=O)CCOCC(C(=O)N[C@@H](CCCCN)C(=O)N2CCC[C@H]2C(=O)NC(CCCCNC(=O)CCCC(NC(=O)[C@@H]2CCCN2C(=O)[C@H](CCCCN)NC(=O)C2COCCC(NC(=O)[C@H](CC(C)C)NC(=O)[C@H](Cc3ccc(O)cc3)NC(=O)[C@H](CC(N)=O)NC(C)=O)C(=O)N[C@@H](CCCNC(=N)N)C(=O)N[C@@H](CCSC)C(=O)N3CCC[C@H]3C(=O)N[C@@H](Cc3ccc4ccccc4c3)C(=O)N[C@@H](C(C)C)C(=O)N2)C(=O)N[C@@H](CCCNC(=N)N)C(N)=O)C(=O)N[C@@H](CCCNC(=N)N)C(N)=O)NC(=O)[C@H](C(C)C)NC(=O)[C@H](Cc2ccc3ccccc3c2)NC(=O)[C@@H]2CCCN2C1=O (stereo partly drawn) [AC-0005-061],Ki,[1],27.7 nM
same,IC50,"Example 4, sixth table",58.5 nM
CSCC[C@@H]1NC(=O)[C@H](CCCNC(=N)N)NC(=O)C(NC(=O)[C@H](CC(C)C)NC(=O)[C@H](Cc2ccc(O)cc2)NC(=O)[C@H](CC(N)=O)NC(C)=O)CCOCC(C(=O)N[C@@H](CCCCN)C(=O)N2CCC[C@H]2C(=O)NC(CCCCNC(=O)CCCC(NC(=O)[C@@H]2CCCN2C(=O)[C@H](CCCCN)NC(=O)C2COCCC(NC(=O)[C@H](CC(C)C)NC(=O)[C@H](Cc3ccc(O)cc3)NC(=O)[C@H](CC(N)=O)NC(C)=O)C(=O)N[C@@H](CCCNC(=N)N)C(=O)N[C@@H](CCSC)C(=O)N3CCC[C@H]3C(=O)N[C@@H](Cc3ccc4ccccc4c3)C(=O)N[C@@H](C(C)C)C(=O)N2)C(=O)NCCC(=O)N[C@@H](CCCNC(=N)N)C(N)=O)C(=O)NCCC(=O)N[C@@H](CCCNC(=N)N)C(N)=O)NC(=O)[C@H](C(C)C)NC(=O)[C@H](Cc2ccc3ccccc3c2)NC(=O)[C@@H]2CCCN2C1=O (stereo partly drawn) [AC-0005-062],Ki,[1],1.2 nM
same,IC50,"Example 4, sixth table",2.4 nM
CSCC[C@@H]1NC(=O)[C@H](CCCNC(=N)N)NC(=O)C(NC(=O)[C@H](CC(C)C)NC(=O)[C@H](Cc2ccc(O)cc2)NC(=O)[C@H](CC(N)=O)NC(C)=O)CCOCC(C(=O)N[C@@H](CCCCNC(=N)N)C(=O)N2CCC[C@H]2C(=O)NC(CCCCNC(=O)CCCC(NC(=O)[C@@H]2CCCN2C(=O)[C@H](CCCCNC(=N)N)NC(=O)C2COCCC(NC(=O)[C@H](CC(C)C)NC(=O)[C@H](Cc3ccc(O)cc3)NC(=O)[C@H](CC(N)=O)NC(C)=O)C(=O)N[C@@H](CCCNC(=N)N)C(=O)N[C@@H](CCSC)C(=O)N3CCC[C@H]3C(=O)N[C@@H](Cc3ccc4ccccc4c3)C(=O)N[C@@H](C(C)C)C(=O)N2)C(=O)NCCC(=O)N[C@@H](CCCNC(=N)N)C(N)=O)C(=O)NCCC(=O)N[C@@H](CCCNC(=N)N)C(N)=O)NC(=O)[C@H](C(C)C)NC(=O)[C@H](Cc2ccc3ccccc3c2)NC(=O)[C@@H]2CCCN2C1=O (stereo partly drawn) [AC-0005-063],Ki,[1],1 nM
same,IC50,"Example 4, sixth table",2.2 nM
CSCC[C@@H]1NC(=O)[C@H](CCCNC(=N)N)NC(=O)C(NC(=O)[C@H](CC(C)C)NC(=O)[C@H](Cc2ccc(O)cc2)NC(=O)[C@H](CC(N)=O)NC(C)=O)CCOCC(C(=O)N[C@@H](CCCCNC(=N)N)C(=O)N2CCC[C@H]2C(=O)NCCCOCCC(OCCCNC(=O)[C@@H]2CCCN2C(=O)[C@H](CCCCNC(=N)N)NC(=O)C2COCCC(NC(=O)[C@H](CC(C)C)NC(=O)[C@H](Cc3ccc(O)cc3)NC(=O)[C@H](CC(N)=O)NC(C)=O)C(=O)N[C@@H](CCCNC(=N)N)C(=O)N[C@@H](CCSC)C(=O)N3CCC[C@H]3C(=O)N[C@@H](Cc3ccc4ccccc4c3)C(=O)N[C@@H](C(C)C)C(=O)N2)C(N)=O)NC(=O)[C@H](C(C)C)NC(=O)[C@H](Cc2ccc3ccccc3c2)NC(=O)[C@@H]2CCCN2C1=O (stereo partly drawn) [AC-0005-064],Ki,[1],0.6 nM
same,IC50,"Example 4, sixth table",1.3 nM
"I: Ac-GGLYACHMGPIT[1Nal]VCQPQGG[ξK]-NH2 / II: Ac-GGNYLCHMGPIT[1Nal]VCQPQGG[Ava] (disulfide I:6-I:15, II:6-II:15; amide I:21-II:C) [AC-0005-002]",Ki (AC-0005-002)/Ki,"Example 4, first table",1
